The target of this experiment is Coagulation factor X (Homo sapiens, UniProt P00742). Description: Inhibition of human Coagulation factor X was determined.
Coagulation factor X, sequence (P00742 41-179 limits assumed): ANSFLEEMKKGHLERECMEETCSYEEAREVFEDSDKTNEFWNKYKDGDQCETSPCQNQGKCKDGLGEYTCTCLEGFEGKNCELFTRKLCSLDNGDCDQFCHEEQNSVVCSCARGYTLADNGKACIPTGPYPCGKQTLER
Coagulation factor X, sequence (P00742 235-488 limits assumed): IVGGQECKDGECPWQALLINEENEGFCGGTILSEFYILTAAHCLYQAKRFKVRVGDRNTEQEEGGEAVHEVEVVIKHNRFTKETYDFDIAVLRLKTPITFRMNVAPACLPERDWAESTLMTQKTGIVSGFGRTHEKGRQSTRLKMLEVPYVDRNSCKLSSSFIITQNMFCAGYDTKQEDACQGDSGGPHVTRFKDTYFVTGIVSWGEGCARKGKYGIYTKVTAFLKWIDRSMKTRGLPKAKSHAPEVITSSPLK

The Ki is the dissociation constant of the complex between target and ligand, obtained from inhibition or displacement. High values mean weaker binding, low ones tighter binding. As for `Cc1c(F)c(Oc2cccc(C(=N)N)c2)nc(Oc2cccc(N3CCCCC3)c2)c1F`, the Ki is 650 nM.

`CC(=O)Cc1cccc(Oc2nc(Oc3cccc(C(=N)N)c3)c(F)c(C)c2F)c1` had a Ki of 1400 nM.

As to `CN1CC(C)(C)N=C1c1cccc(Oc2cc(C(=O)O)cc(Oc3cc(C(=N)N)ccc3O)n2)c1`, the Ki amounted to 810 nM.

`Cc1c(F)c(Oc2cccc(CC(=O)C(C)C)c2)nc(Oc2cccc(C(=N)N)c2)c1F` showed a Ki of 2100 nM.

Source of the values: ChEMBL document CHEMBL1145939, “Analyses of activity for factor Xa inhibitors based on Monte Carlo simulations” (J Med Chem, 2003).
